# Measured values reported in ChEMBL document CHEMBL1201862, “PubChem BioAssay data set” (2004).
#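 Cells were grown in 96-well plates and exposed to each compound for 48 hours at five concentrations; endpoints were interpolated linearly between bracketing concentrations, or set to the highest concentration if not reached. Abbreviation: GI50, concentration required for 50% inhibition of growth.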 Activity calls are given as the source filed them. Rule as the data show it: active = GI50 up to about 1.1 µM and inactive = higher.
# Columns and labels:
# Experiment in all cases: DTP human tumour cell line panel, 48 h
# [1] = tested on: SK-MEL-5
# [2] = tested on: SK-MEL-28
# [3] = tested on: RPMI-8226
# [4] = tested on: SN12C
# [5] = tested on: 786-0
# [6] = tested on: NCI-H522
# [7] = tested on: HOP-62
# [8] = tested on: CAKI-1
# [9] = tested on: UO-31
# [10] = tested on: OVCAR-8
# [11] = tested on: K562
# [12] = tested on: SW-620
# [13] = tested on: HT-29
# [14] = tested on: IGROV-1
# [15] = tested on: U-251
# [16] = tested on: COLO 205
Compound,GI50 [1],GI50 [2],GI50 [3],GI50 [4],GI50 [5],GI50 [6],GI50 [7],GI50 [8],GI50 [9],GI50 [10],GI50 [11],GI50 [12],GI50 [13],GI50 [14],GI50 [15],GI50 [16]
CC(C)/C=C1\CCC(CN2CCOCC2)C1=O (stereo unspecified),18.6 µM (inactive),17.7 µM (inactive),0.964 µM (active),19.3 µM (inactive),3.66 µM (inactive),2.01 µM (inactive),> 100 µM (inactive),4.24 µM (inactive),20.7 µM (inactive),11.1 µM (inactive),2.56 µM (inactive),2.7 µM (inactive),6.7 µM (inactive),14.4 µM (inactive),> 42.4 µM (inactive),6.85 µM (inactive)
COc1ccc(/C=C2\CN(C)Cc3c2nc(N)nc3-c2ccc(OC)cc2)cc1,26.9 µM (inactive),> 100 µM (inactive),24.6 µM (inactive),> 100 µM (inactive),> 100 µM (inactive),41.3 µM (inactive),64.1 µM (inactive),> 100 µM (inactive),> 100 µM (inactive),49.3 µM (inactive),70.5 µM (inactive),57.4 µM (inactive),–,> 100 µM (inactive),67.5 µM (inactive),95.7 µM (inactive)
CCCCCCCCCCCCCC(=S)N/C=C/OC,25 µM (inactive),41.7 µM (inactive),23.6 µM (inactive),34.9 µM (inactive),30.8 µM (inactive),20.3 µM (inactive),48 µM (inactive),–,31 µM (inactive),38 µM (inactive),–,35.5 µM (inactive),21.3 µM (inactive),41.3 µM (inactive),21.4 µM (inactive),27.1 µM (inactive)
NC1N=Nc2ccccc21 (stereo unspecified),–,> 100 µM (inactive),> 100 µM (inactive),> 100 µM (inactive),> 100 µM (inactive),> 100 µM (inactive),> 100 µM (inactive),> 100 µM (inactive),> 100 µM (inactive),> 100 µM (inactive),> 100 µM (inactive),> 100 µM (inactive),> 100 µM (inactive),> 100 µM (inactive),> 100 µM (inactive),> 100 µM (inactive)
COC1OC(C)C(OC(=O)C(C)(C)C)C(OS(=O)(=O)c2ccc(C)cc2)C1OS(=O)(=O)c1ccc(C)cc1 (stereo unspecified),> 100 µM (inactive),> 100 µM (inactive),> 100 µM (inactive),> 100 µM (inactive),> 100 µM (inactive),> 100 µM (inactive),> 100 µM (inactive),5.9 µM (inactive),> 100 µM (inactive),> 100 µM (inactive),> 100 µM (inactive),> 100 µM (inactive),> 100 µM (inactive),> 100 µM (inactive),> 100 µM (inactive),> 100 µM (inactive)
O=S(=O)(c1ccccc1)C1CN2OC1(S(=O)(=O)c1ccccc1)CC2c1ccc(Br)cc1 (stereo unspecified),90.6 µM (inactive),> 100 µM (inactive),> 100 µM (inactive),> 100 µM (inactive),38.1 µM (inactive),34 µM (inactive),34.3 µM (inactive),60 µM (inactive),37.9 µM (inactive),> 100 µM (inactive),> 100 µM (inactive),> 100 µM (inactive),> 100 µM (inactive),> 100 µM (inactive),54.2 µM (inactive),–
CN(CC(=O)O)S(=O)(=O)c1ccc(Cl)cc1,> 100 µM (inactive),> 100 µM (inactive),> 100 µM (inactive),> 100 µM (inactive),> 100 µM (inactive),> 100 µM (inactive),–,> 100 µM (inactive),> 100 µM (inactive),> 100 µM (inactive),> 100 µM (inactive),> 100 µM (inactive),> 100 µM (inactive),> 100 µM (inactive),> 100 µM (inactive),> 100 µM (inactive)
COc1ccc2c(c1OC)C(=O)C2,> 100 µM (inactive),> 100 µM (inactive),> 100 µM (inactive),> 100 µM (inactive),> 100 µM (inactive),> 100 µM (inactive),> 100 µM (inactive),–,> 100 µM (inactive),> 100 µM (inactive),> 10 µM (inactive),> 100 µM (inactive),> 100 µM (inactive),–,> 100 µM (inactive),> 100 µM (inactive)
N#CCCN(c1ccc(/C=N/c2ccccc2)cc1)S(=O)(=O)c1ccccc1,> 100 µM (inactive),> 100 µM (inactive),> 100 µM (inactive),> 100 µM (inactive),> 100 µM (inactive),> 100 µM (inactive),23.7 µM (inactive),> 100 µM (inactive),17 µM (inactive),> 100 µM (inactive),2.97 µM (inactive),> 100 µM (inactive),17 µM (inactive),> 100 µM (inactive),–,> 100 µM (inactive)
CC(=O)N/N=C1\CC(C)(C)C2CCC1C2 (stereo unspecified),> 100 µM (inactive),> 100 µM (inactive),> 100 µM (inactive),> 100 µM (inactive),> 100 µM (inactive),> 100 µM (inactive),> 100 µM (inactive),> 100 µM (inactive),> 100 µM (inactive),> 100 µM (inactive),> 100 µM (inactive),> 100 µM (inactive),–,> 100 µM (inactive),> 100 µM (inactive),> 100 µM (inactive)
COC1(C)CC2N(C(=O)c3ccccc3)N=C(c3ccccc3)CC2(C)O1 (stereo unspecified),> 100 µM (inactive),–,89.5 µM (inactive),> 100 µM (inactive),> 100 µM (inactive),> 100 µM (inactive),> 100 µM (inactive),> 100 µM (inactive),> 100 µM (inactive),> 100 µM (inactive),88.9 µM (inactive),> 100 µM (inactive),> 100 µM (inactive),> 100 µM (inactive),–,–
CCOC(=O)/N=C(\N)SCc1ccccc1,> 100 µM (inactive),> 100 µM (inactive),34.3 µM (inactive),> 100 µM (inactive),> 100 µM (inactive),> 100 µM (inactive),> 100 µM (inactive),> 100 µM (inactive),> 100 µM (inactive),> 100 µM (inactive),> 100 µM (inactive),> 100 µM (inactive),> 100 µM (inactive),> 100 µM (inactive),> 100 µM (inactive),–
CC(=O)OC1COC(N2C(=O)C(=O)c3c(C)cc(Cl)nc32)C(OC(C)=O)C1OC(C)=O (stereo unspecified),> 100 µM (inactive),> 100 µM (inactive),> 100 µM (inactive),> 100 µM (inactive),> 100 µM (inactive),–,> 100 µM (inactive),> 100 µM (inactive),> 100 µM (inactive),> 100 µM (inactive),> 100 µM (inactive),> 100 µM (inactive),> 100 µM (inactive),> 100 µM (inactive),> 100 µM (inactive),> 100 µM (inactive)
Cc1nn(-c2nc3ccccc3s2)c2c1C(=O)c1ccccc1-2,> 100 µM (inactive),> 100 µM (inactive),> 100 µM (inactive),> 100 µM (inactive),80.4 µM (inactive),> 100 µM (inactive),> 100 µM (inactive),–,> 100 µM (inactive),–,> 100 µM (inactive),> 100 µM (inactive),> 100 µM (inactive),> 100 µM (inactive),60.7 µM (inactive),> 100 µM (inactive)
C[Si](C)(C)c1ccc(CC2(Cc3ccc([Si](C)(C)C)cc3)CCNC2)cc1,1.9 µM (inactive),2.33 µM (inactive),–,1.71 µM (inactive),1.77 µM (inactive),1.78 µM (inactive),2.94 µM (inactive),2.39 µM (inactive),2.48 µM (inactive),1.85 µM (inactive),3.62 µM (inactive),1.86 µM (inactive),2.04 µM (inactive),2.58 µM (inactive),1.66 µM (inactive),1.8 µM (inactive)
O=C(/C=N/c1ccccc1[S-])c1ccco1.O=C(/C=N/c1ccccc1[S-])c1ccco1.[Zn+2],16.9 µM (inactive),10.7 µM (inactive),–,10 µM (inactive),8.3 µM (inactive),10 µM (inactive),6 µM (inactive),10 µM (inactive),2.99 µM (inactive),6.37 µM (inactive),18.9 µM (inactive),10.9 µM (inactive),18.7 µM (inactive),5.14 µM (inactive),4.23 µM (inactive),17.5 µM (inactive)
COc1ccc(C2Oc3ccc(O)cc3[C@@H]2C)cc1OC (stereo partly specified),48.5 µM (inactive),> 100 µM (inactive),4.05 µM (inactive),–,> 100 µM (inactive),27.5 µM (inactive),> 100 µM (inactive),18.9 µM (inactive),63.1 µM (inactive),> 100 µM (inactive),> 100 µM (inactive),> 100 µM (inactive),> 100 µM (inactive),> 100 µM (inactive),> 100 µM (inactive),> 100 µM (inactive)
CCCC1(CC(=O)O)OCCc2c1[nH]c1ccccc21 (stereo unspecified) [PRODOLIC ACID],> 100 µM (inactive),> 100 µM (inactive),> 100 µM (inactive),> 100 µM (inactive),> 100 µM (inactive),–,> 100 µM (inactive),> 100 µM (inactive),> 100 µM (inactive),> 100 µM (inactive),> 100 µM (inactive),> 100 µM (inactive),–,> 100 µM (inactive),> 100 µM (inactive),> 100 µM (inactive)
